Data set [1] is described as follows: Inhibition of DNA decatenation activity of Escherichia coli DNA topoisomerase 4 after 1 hr by agarose gel electrophoresis.
In data set [2] the test system is Escherichia coli. As to the kind of experiment: Antimicrobial activity against ciprofloxacin-, SXT-resistant Escherichia coli. The data set is classed as functional.
In data set [3] the test system is Staphylococcus aureus. As to the kind of experiment: Antimicrobial activity against ciprofloxacin-, SXT-sensitive Staphylococcus aureus ATCC 25923. The format is functional.
Data set [4] concerns Escherichia coli. Nature of the data set: Antimicrobial activity against ciprofloxacin-, SXT-sensitive Escherichia coli ATCC 25922. The format is functional.
In data set [5] the test system is Pseudomonas aeruginosa. As to the kind of experiment: Antimicrobial activity against ciprofloxacin-sensitive, SXT-resistant Pseudomonas aeruginosa ATCC 10145. The format is functional.
Data set [6] relates to Staphylococcus epidermidis. Nature of the data set: Antimicrobial activity against ciprofloxacin-sensitive, SXT-resistant Staphylococcus epidermidis NRS60. The data set is classed as functional.
The subject of data set [7] is Klebsiella pneumoniae. As to the kind of experiment: Antimicrobial activity against ciprofloxacin-sensitive, SXT-resistant Klebsiella pneumoniae ATCC 700603. The data set is classed as functional.
Data set [8] in a line: Inhibition of DNA supercoiling activity of Escherichia coli DNA gyrase after 1 hr by agarose gel electrophoresis.
For data set [9], the target named is T1, Dihydrofolate reductase (Homo sapiens, UniProt P00374).
T1 sequence (P00374 whole entry): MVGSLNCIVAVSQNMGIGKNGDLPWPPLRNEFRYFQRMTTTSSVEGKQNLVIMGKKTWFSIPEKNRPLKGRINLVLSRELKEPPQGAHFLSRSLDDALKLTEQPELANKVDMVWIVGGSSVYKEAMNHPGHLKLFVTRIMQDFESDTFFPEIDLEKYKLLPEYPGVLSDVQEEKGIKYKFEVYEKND
As to the kind of experiment: Inhibition of DHFR using dihydrofolate as substrate following 3 mins substrate preincubation measured after 3 mins by spectrophotometric analysis.

Data set [10] in a line: Cytotoxicity against human HEK293 cells after 48 hrs by MTT assay. The data set is classed as cell-based.
Data set [11] can be described thus: Cytotoxicity against human HepG2 cells after 48 hrs by MTT assay. The data set is classed as cell-based.
Data set [12] has as its system HEK293. As to the kind of experiment: Cytotoxicity against human HEK293 cells at 100 uM after 48 hrs by MTT assay. The data set is classed as cell-based. Particulars: hek293, 48 h; call rule not given here.
The subject of data set [13] is HepG2. Nature of the data set: Cytotoxicity against human HepG2 cells at 100 uM after 48 hrs by MTT assay. The format is cell-based. Particulars: hepg2, 48 h. Background: Tetrazolium dyes change colour on reduction, which living cells bring about.

≈ marks a conversion by molar mass, not a printed value.

For `[N-]=[N+]=Nc1nc2c(cc1F)c(=O)c(C(=O)O)cn2C1CC1`, the IC50 (commonly the concentration needed to halve the response being measured) was greater than 250 µM in data set [1] (read-out: IC50) and 17 µM in [8] (read-out: IC50). The MIC (in general, the lowest concentration that inhibits growth of the organism) is greater than 64 µg/mL in data set [2]; 16 µg/mL (≈ 55.3 µM) in [3]; 2 µg/mL (≈ 6.92 µM) in data set [4]; greater than 64 µg/mL in [5]; 4 µg/mL (≈ 13.8 µM) in [6]; 64 µg/mL (≈ 221 µM) in data set [7].
On to `CCOC(=O)c1cn(C2CC2)c2nc(NCc3cn(Cc4cnc(N)nc4N)nn3)c(F)cc2c1=O`, for which the IC50 result in data set [1] and in [8] was “Not Active” throughout. Also, the MIC in [2], in [3], in data set [4], in [5], in data set [6] and in [7] was greater than 64 µg/mL throughout.
`Nc1ncc(Cn2cc(CN3CCN(c4nc5c(cc4F)c(=O)c(C(=O)O)cn5C4CC4)CC3)nn2)c(N)n1`: the IC50 in [1] (read-out: IC50) worked out at 10.7 µM; in [8] (read-out: IC50), 160 µM. Further, the MIC in data set [2] was greater than 64 µg/mL; in [3] it was 64 µg/mL (≈ 120 µM); in data set [4], 4 µg/mL (≈ 7.47 µM); in data set [5], 64 µg/mL (≈ 120 µM); in data set [6], 8 µg/mL (≈ 14.9 µM); in data set [7], greater than 64 µg/mL.
With `COc1cc(Cc2cnc(N)nc2N)cc2c1OCCN2`, the IC50 in data set [1] (read-out: IC50) and in [8] (read-out: IC50) was greater than 250 µM throughout. Moreover, the MIC in data set [2] was greater than 64 µg/mL; in data set [3], 8 µg/mL (≈ 27.8 µM); in data set [4], 8 µg/mL (≈ 27.8 µM); in data set [5] it was greater than 64 µg/mL; in data set [6], greater than 64 µg/mL; in [7], 32 µg/mL (≈ 111 µM).
As for `C#CCN1CCN(c2nc3c(cc2F)c(=O)c(C(=O)O)cn3C2CC2)CC1`, the concentration for half-maximal inhibition (IC50) was found to be 4.4 µM in data set [1] (read-out: IC50) and 10 µM in [8] (read-out: IC50). The MIC in data set [2] is greater than 64 µg/mL; in [3], 0.25 µg/mL (≈ 0.675 µM); in [4] it was 0.25 µg/mL (≈ 0.675 µM); in [5], 8 µg/mL (≈ 21.6 µM); in data set [6] it was 0.5 µg/mL (≈ 1.35 µM); in data set [7] it was 8 µg/mL (≈ 21.6 µM).
For `C#CCNc1nc2c(cc1F)c(=O)c(C(=O)O)cn2C1CC1`, the IC50 in data set [1] (read-out: IC50) was greater than 250 µM; in [8] (read-out: IC50), 166 µM. Also, the MIC in data set [2] was greater than 64 µg/mL; in data set [3], 32 µg/mL (≈ 106 µM); in [4], 16 µg/mL (≈ 53.1 µM); in data set [5] it was greater than 64 µg/mL; in data set [6], 16 µg/mL (≈ 53.1 µM); in data set [7] it was greater than 64 µg/mL.
Take `O=C(O)c1cn(C2CC2)c2cc(N3CCNCC3)c(F)cc2c1=O` [CIPROFLOXACIN]: the IC50 in data set [1] (read-out: IC50) was 0.392 µM; in data set [8] (read-out: IC50) it was 0.97 µM. For the same molecule, the MIC is greater than 64 µg/mL in [2]; 0.5 µg/mL (≈ 1.51 µM) in data set [3]; no more than 0.03 µg/mL in data set [4]; no more than 0.03 µg/mL in data set [5]; 0.06 µg/mL (≈ 0.181 µM) in data set [6]; 0.125 µg/mL (≈ 0.377 µM) in data set [7].
Regarding `COc1cc(Cc2cnc(N)nc2Nc2nc3c(cc2F)c(=O)c(C(=O)O)cn3C2CC2)cc2c1OCCN2`, the MIC in data set [2], in data set [3], in data set [4], in data set [5], in data set [6] and in [7] was greater than 64 µg/mL in each case.
For the molecule `Nc1ncc(CNc2nc3c(cc2F)c(=O)c(C(=O)O)cn3C2CC2)c(N)n1`, the MIC in data set [3] and in [4] was greater than 64 µg/mL in each case.
For `COc1cc(Cc2cnc(Nc3nc4c(cc3F)c(=O)c(C(=O)O)cn4C3CC3)nc2N)cc2c1OCCN2`, the MIC in [2], in data set [3], in data set [4], in data set [5], in [6] and in [7] was greater than 64 µg/mL each time.
For the molecule `COc1cc(Cc2cnc(N)nc2N)cc(OC)c1OC` [TRIMETHOPRIM], the MIC in [2] is greater than 64 µg/mL; in data set [3], 1 µg/mL (≈ 3.44 µM); in [4] it was 0.125 µg/mL (≈ 0.431 µM); in data set [5], greater than 64 µg/mL; in [6] it was greater than 64 µg/mL; in data set [7], 2 µg/mL (≈ 6.89 µM).
In the case of `Nc1ncc(COCc2cn(-c3nc4c(cc3F)c(=O)c(C(=O)O)cn4C3CC3)nn2)c(N)n1`, the results for the IC50 in [1] (read-out: IC50), in data set [9] and in data set [8] (read-out: IC50) were 4.5 µM, greater than 250 µM and 48 µM, respectively. The MIC was greater than 64 µg/mL in data set [2]; 4 µg/mL (≈ 8.56 µM) in data set [3]; 0.5 µg/mL (≈ 1.07 µM) in data set [4]; greater than 64 µg/mL in [5]; 4 µg/mL (≈ 8.56 µM) in data set [6]; 16 µg/mL (≈ 34.2 µM) in data set [7].
In the case of `C#CCNc1nc2c(cc1F)c(=O)c(C(=O)OCC)cn2C1CC1`, the CC50 at 48 h in [10] and in [11] was 80 µM throughout. Besides, the Activity entry in data set [12] and in data set [13] was “Toxic” throughout.
As to COLISTIN, the minimum inhibitory concentration (MIC) is greater than 64 µg/mL in data set [2]; 1 µg/mL in data set [3]; 0.06 µg/mL in [4]; no more than 0.03 µg/mL in data set [5]; 2 µg/mL in data set [6]; less than 0.03 µg/mL in [7].

The values are drawn from ChEMBL document CHEMBL2010671, “Structure aided design of chimeric antibiotics” (Bioorg Med Chem Lett, 2012).
